Measurements as given in patent US20080145346A1, “Methods And Compounds For Altering The Load Of Hepatitis Virus” (Agency for Science, Technology and Research, priority 2003, published 2008).

Test system: hnRNP K
Assay: Electrophoretic Mobility Shift Assay (EMSA) of HBV enhancer II probes with HepG2 nuclear extracts
Type: binding, human
Conditions: 10 μg HepG2 nuclear extracts; 32P end-labelled 28-mer probe
Protocol: 28-mer oligonucleotide probes were designed to contain either the 1752A or 1752G nucleotide with control probes taken from the adjacent upstream sequence. EMSA was performed using HepG2 nuclear extracts with the four respective probes. Probe 1 (SEQ ID NO: 12): Lanes 1 to 4; Probe 2 (SEQ ID NO: 13, A^1752): Lanes 5 to 8; Probe 3 (SEQ ID NO: 14): Lanes 9 to 12; Probe 4 (SEQ ID NO: 15, G^1752): Lanes 13 to 16. Each set of probes contains increasing concentrations (0.0 μg, 0.05 μg, 0.10 μg and 0.15 μg) of non-specific competitor DNA of [poly-(dI)-poly-(dC)] respectively. This competitor DNA is included to minimize the binding of nonspecific proteins to the labeled probes. DNA-protein complexes migrate at a different speed than free DNA molecules. […] Verification of the presence of hnRNP K as the second component in the complex can subsequently be performed by an analysis as shown in FIG. 19. hnRNP K was detected using the 1752A probe (Probe 2, lanes 5 to 8) along with a weaker band of similar size using the 1752G probe (Probe 4, lanes 13 to 16). […]
HBV-hnRNP K interaction was analysed by a method that is known to persons skilled in the art as an “electrophoretic mobility shift assay” or “EMSA”. […] The 1752A probe (Probe 2, lanes 5 to 8) detected hnRNP K in form of a band. A corresponding weaker band of hnRNP was detected by the 1752G probe (Probe 4, lanes 13 to 16 in FIG. 18).

## AGTTGGGGGAGGAGATTAGGTTAAAGGT (listed as DNA, chemistry not given here) [Probe 2, 28-mer HBV enhancer II oligonucleotide probe containing 1752A]
  densitometric band signal of hnRNP K higher than that detected by Probe 4: about 300%
